Consider eight compounds from ChEMBL document CHEMBL1130065, “Dual inhibition of human leukocyte elastase and lipid peroxidation: in vitro and in vivo activities of azabicyclo[2.2.2]octane and perhydroindole derivatives” (J Med Chem, 1997).

pIC50: −log10 of the molar value.

One test addresses T1, Neutrophil elastase (Homo sapiens, UniProt P08246).
T1 sequence (P08246 whole entry): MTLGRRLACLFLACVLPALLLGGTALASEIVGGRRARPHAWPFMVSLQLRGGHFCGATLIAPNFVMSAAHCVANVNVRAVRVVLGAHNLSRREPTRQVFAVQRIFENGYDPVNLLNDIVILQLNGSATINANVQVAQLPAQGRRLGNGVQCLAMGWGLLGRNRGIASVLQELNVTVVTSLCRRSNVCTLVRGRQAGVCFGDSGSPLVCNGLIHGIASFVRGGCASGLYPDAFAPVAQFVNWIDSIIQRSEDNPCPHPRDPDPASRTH
The experiment in a line: Inhibitory concentration against Human Leukocyte Elastase from human sputum.

In test [1] the target is T2, Neutrophil elastase (Homo sapiens) (UniProt P08246).
T2 sequence (whole entry): T1 sequence (P08246 whole entry)
Briefly: Percentage inhibition of HLE induced hemorrhage in the hamster lung at 3 hours. It is filed as functional. On the set-up: concentration or dose not given beside the values. As to conditions: concentration not given here; call rule not given here.

Test [2] is filed under the species Rattus norvegicus. The experiment in a line: Inhibitory concentration against ferric ascorbate-induced lipid peroxidation from rat liver microsomal preparation. It is filed as functional.
The target in test [3] is T2, Neutrophil elastase (Homo sapiens). Briefly: Percentage inhibition of HLE induced hemorrhage in the hamster lung at 18 hours. The test is classed as functional, tissue-based. Conditions: concentration not given here.
Test [4] shares this target. The experiment in a line: Percentage inhibition of HLE induced hemorrhage in the hamster lung at 24 hours. The test is classed as functional, tissue-based. Conditions: concentration not given here.
Test [5] shares this target. The experiment in a line: Percentage inhibition of HLE induced hemorrhage in the hamster lung at 6 hours. It is filed as functional, tissue-based. Conditions: concentration not given here.
The species named for test [6] is Rattus norvegicus.
The target of another test is Stromelysin-1 (Homo sapiens, UniProt P08254). Briefly: The concentration required to achieve 50% inhibition against Matrix metalloprotease-3.
Stromelysin-1, sequence (P08254 whole entry): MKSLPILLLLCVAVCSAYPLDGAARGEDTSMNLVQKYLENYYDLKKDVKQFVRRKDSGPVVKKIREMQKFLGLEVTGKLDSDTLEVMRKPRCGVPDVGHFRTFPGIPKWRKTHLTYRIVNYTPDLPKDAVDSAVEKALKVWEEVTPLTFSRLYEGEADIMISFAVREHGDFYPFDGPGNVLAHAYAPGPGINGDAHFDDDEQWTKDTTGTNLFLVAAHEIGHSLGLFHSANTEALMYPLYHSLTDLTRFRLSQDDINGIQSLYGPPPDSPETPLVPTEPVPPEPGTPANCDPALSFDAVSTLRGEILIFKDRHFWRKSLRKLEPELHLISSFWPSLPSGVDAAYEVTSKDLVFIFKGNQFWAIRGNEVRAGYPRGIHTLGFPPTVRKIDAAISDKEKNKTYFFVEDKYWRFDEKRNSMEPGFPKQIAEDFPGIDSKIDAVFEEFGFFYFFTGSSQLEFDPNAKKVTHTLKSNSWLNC
Test [7] deals with 72 kDa type IV collagenase (Homo sapiens, UniProt P08253). The experiment in a line: The concentration required to achieve 50% inhibition against Matrix metalloprotease-2.
72 kDa type IV collagenase, sequence (P08253 whole entry): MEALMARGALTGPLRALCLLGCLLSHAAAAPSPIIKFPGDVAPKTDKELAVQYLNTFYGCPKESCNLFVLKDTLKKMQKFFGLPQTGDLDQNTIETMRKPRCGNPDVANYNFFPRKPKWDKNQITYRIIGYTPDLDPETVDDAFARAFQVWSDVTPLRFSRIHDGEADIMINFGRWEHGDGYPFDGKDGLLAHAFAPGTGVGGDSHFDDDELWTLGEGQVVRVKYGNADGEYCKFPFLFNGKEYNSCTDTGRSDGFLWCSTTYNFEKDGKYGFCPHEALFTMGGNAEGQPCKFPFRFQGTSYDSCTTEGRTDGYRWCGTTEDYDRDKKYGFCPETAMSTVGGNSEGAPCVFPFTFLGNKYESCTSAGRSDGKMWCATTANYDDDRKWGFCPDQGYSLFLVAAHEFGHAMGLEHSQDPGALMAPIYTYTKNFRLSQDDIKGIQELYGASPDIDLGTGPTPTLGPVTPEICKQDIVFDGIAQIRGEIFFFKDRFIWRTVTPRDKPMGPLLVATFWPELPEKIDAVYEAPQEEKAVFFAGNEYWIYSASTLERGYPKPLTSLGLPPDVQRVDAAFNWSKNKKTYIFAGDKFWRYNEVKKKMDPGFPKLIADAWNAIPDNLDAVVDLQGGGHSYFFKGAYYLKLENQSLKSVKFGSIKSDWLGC
A further test deals with T3, Interstitial collagenase (Homo sapiens, UniProt P03956).
T3 sequence (P03956 whole entry): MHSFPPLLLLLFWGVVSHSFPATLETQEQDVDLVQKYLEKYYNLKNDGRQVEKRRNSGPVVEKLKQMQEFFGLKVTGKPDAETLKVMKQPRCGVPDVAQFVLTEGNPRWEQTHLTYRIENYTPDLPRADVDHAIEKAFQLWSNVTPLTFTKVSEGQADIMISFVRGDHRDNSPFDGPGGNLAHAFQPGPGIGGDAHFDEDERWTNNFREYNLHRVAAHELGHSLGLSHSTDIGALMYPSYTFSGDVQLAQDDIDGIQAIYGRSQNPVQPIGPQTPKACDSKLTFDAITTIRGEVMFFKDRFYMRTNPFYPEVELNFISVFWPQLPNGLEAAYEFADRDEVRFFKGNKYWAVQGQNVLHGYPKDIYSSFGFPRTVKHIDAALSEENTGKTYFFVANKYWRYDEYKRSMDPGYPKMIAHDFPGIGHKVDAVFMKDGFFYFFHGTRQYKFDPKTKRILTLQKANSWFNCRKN
The experiment in a line: The concentration required to achieve 50% inhibition against Matrix metalloprotease-1.

Test [8] addresses Matrix metalloproteinase-9 (Homo sapiens, UniProt P14780). Briefly: The concentration required to achieve 50% inhibition against Matrix metalloprotease-9.
For another test, the target named is T4, Prolyl endopeptidase (Homo sapiens, UniProt P48147).
T4 sequence (P48147 whole entry): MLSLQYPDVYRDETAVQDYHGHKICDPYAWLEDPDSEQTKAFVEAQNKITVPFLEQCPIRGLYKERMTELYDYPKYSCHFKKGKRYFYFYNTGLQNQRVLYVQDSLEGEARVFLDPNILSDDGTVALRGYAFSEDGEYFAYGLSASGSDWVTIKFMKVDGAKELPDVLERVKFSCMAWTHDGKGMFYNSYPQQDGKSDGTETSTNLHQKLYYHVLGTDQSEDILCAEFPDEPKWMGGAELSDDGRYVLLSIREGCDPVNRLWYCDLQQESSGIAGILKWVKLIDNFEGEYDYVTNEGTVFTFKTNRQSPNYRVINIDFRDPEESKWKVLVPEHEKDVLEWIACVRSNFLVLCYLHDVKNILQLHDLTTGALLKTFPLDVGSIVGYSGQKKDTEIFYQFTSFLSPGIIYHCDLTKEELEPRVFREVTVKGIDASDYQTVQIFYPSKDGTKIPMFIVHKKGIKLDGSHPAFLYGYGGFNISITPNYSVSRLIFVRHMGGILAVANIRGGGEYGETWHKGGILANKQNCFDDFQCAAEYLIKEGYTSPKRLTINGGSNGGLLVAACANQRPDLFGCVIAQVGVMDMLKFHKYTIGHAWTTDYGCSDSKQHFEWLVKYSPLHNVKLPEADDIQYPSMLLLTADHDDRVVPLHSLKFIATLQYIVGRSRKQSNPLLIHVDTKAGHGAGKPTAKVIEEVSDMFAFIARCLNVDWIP
The experiment in a line: The concentration required to achieve 50% inhibition against prolyl endopeptidase.

The target of test [9] is T2, Neutrophil elastase (Homo sapiens). The experiment in a line: Percentage inhibition of HLE induced hemorrhage in the hamster lung at 48 hours. The test is classed as functional, tissue-based. Conditions: concentration not given here.

Matrix metalloproteinase-9, sequence (P14780 whole entry): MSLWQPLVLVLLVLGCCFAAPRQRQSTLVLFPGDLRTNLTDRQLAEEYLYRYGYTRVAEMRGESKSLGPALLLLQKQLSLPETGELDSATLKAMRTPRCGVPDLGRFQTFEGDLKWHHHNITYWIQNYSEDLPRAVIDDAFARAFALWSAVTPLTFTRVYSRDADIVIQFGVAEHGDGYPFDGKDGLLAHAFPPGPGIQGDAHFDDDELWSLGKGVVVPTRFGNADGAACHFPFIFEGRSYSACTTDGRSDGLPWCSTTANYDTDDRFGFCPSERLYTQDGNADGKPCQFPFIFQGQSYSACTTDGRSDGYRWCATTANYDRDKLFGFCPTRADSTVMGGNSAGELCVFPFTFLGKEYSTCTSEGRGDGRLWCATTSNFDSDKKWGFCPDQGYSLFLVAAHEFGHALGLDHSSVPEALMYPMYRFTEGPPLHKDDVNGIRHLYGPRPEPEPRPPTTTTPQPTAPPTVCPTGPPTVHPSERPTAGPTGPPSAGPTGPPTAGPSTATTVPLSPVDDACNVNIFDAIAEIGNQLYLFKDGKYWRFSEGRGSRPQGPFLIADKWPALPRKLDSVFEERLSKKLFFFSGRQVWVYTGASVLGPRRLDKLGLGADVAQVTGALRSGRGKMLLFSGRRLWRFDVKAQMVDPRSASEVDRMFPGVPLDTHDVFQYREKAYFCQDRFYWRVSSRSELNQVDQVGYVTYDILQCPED

Turning to `CC(C)C(NC(=O)[C@@H]1CC2CCCCC2N1C(=O)[C@@H](CCCCNC(=O)CCCSc1cc(C(C)(C)C)c(O)c(C(C)(C)C)c1)NC(=O)c1ccc(C(=O)NS(=O)(=O)c2ccc(Cl)cc2)cc1)C(=O)C(F)(F)F` (stereo not given in full), the pIC50 was 7.08 against Neutrophil elastase and 5.60 in the test filed under Rattus norvegicus [2]. In addition, in test [1], the inhibition worked out at 3%.
For `CC(C)C(NC(=O)c1ccc(S(=O)(=O)NC(=O)Cc2cc(C(C)(C)C)c(O)c(C(C)(C)C)c2)cc1)C(=O)N1[C@@H](C(=O)NC(C(=O)C(F)(F)F)C(C)C)C[C@H]2CCCC[C@H]21` (stereo not given in full), the pIC50 was 7.42 against Neutrophil elastase and 5.30 in the test filed under Rattus norvegicus [2]. Moreover, the inhibition stood at 26% in test [3], 3% in test [4], 66% in test [1] and 65% in [5].
As to `CC(C)[C@H](NC(=O)OC(C)(C)C)C(=O)N1C2CCC(CC2)[C@@H]1C(=O)N[C@H](C(=O)C(F)(F)F)C(C)C`, the pIC50 on Neutrophil elastase is 7.49.
`CC(C)C(NC(=O)c1ccc(S(=O)(=O)NC(=O)c2cc(C(C)(C)C)c(OC(=O)c3cc(C(C)(C)C)c(O)c(C(C)(C)C)c3)c(C(C)(C)C)c2)cc1)C(=O)N1[C@@H](C(=O)NC(C(=O)C(F)(F)F)C(C)C)C[C@H]2CCCC[C@H]21` (stereo not given in full) had a pIC50 against Neutrophil elastase of 7.34. For the same compound, the inhibition in test [1] turned out to be 0%. Moreover, the IC50 result in the test filed under Rattus norvegicus [6] is on record as “Not Active”.
Turning to `CCOCOc1c(C(C)(C)C)cc(/C=C/C(=O)NS(=O)(=O)c2ccc(C(=O)NC(C(=O)N3[C@@H](C(=O)NC(C(=O)C(F)(F)F)C(C)C)C[C@H]4CCCC[C@H]43)C(C)C)cc2)cc1C(C)(C)C` (stereo not given in full), at Neutrophil elastase, the pIC50 is 7.44. The compound also displayed an inhibition in test [1] of 19%. In addition, the IC50 result in the test listed under Rattus norvegicus [6] is on record as “Not Active”.
On Neutrophil elastase, `CC(C)C(NC(=O)c1ccc(C(=O)NS(=O)(=O)c2ccc(Cl)cc2)cc1)C(=O)N1C2CCC(CC2)[C@@H]1C(=O)NC(C(=O)C(F)(F)F)C(C)C` (stereo not given in full) gave a pIC50 of 7.82. Also, the IC50 entry in the test filed under Rattus norvegicus [6] is “Not Active”.
Turning to `CC(C)C(NC(=O)c1ccc(S(=O)(=O)NC(=O)c2ccc(Cl)c(S(=O)(=O)NC(=O)CSc3cc(C(C)(C)C)c(O)c(C(C)(C)C)c3)c2)cc1)C(=O)N1[C@@H](C(=O)NC(C(=O)C(F)(F)F)C(C)C)C[C@H]2CCCC[C@H]21` (stereo not given in full), the negative-log IC50 (pIC50) against Stromelysin-1 was 4.42; in [7], 4.72; against Interstitial collagenase, 4.24; in test [8] it was 4.62; against Prolyl endopeptidase, 5.70.
For `CC(C)C(NC(=O)[C@@H]1CC2CCCCC2N1C(=O)[C@@H](CCCCNC(=O)Cc1cc(C(C)(C)C)c(O)c(C(C)(C)C)c1)NC(=O)c1ccc(C(=O)NS(=O)(=O)c2ccc(Cl)cc2)cc1)C(=O)C(F)(F)F` (stereo not given in full), the pIC50 on Neutrophil elastase was 7.15; in the test listed under Rattus norvegicus [2], 5.60. For the same compound, the inhibition is 45% in [3]; 14% in [4]; 40% in test [1]; 0% in [9]; 41% in test [5].
